The values below are quoted from earlier work in patent publication US7786168B2, “Phenolic acid salts of gabapentin in solid dosage forms and methods of use” (Kiel Laboratories, Inc., priority 2003, dated 2010).

Data set [1] relates to plasma proteins.
The conditions of data set [2]: in water and across a wide range of pH.
The target in data set [3] is gb1a-gb^2 heterodimer and post-synaptic GABAB receptor (Homo sapiens, UniProt Q9UBS5).
Sequence of gb1a-gb^2 heterodimer and post-synaptic GABAB receptor (Q9UBS5 15-961 limits assumed): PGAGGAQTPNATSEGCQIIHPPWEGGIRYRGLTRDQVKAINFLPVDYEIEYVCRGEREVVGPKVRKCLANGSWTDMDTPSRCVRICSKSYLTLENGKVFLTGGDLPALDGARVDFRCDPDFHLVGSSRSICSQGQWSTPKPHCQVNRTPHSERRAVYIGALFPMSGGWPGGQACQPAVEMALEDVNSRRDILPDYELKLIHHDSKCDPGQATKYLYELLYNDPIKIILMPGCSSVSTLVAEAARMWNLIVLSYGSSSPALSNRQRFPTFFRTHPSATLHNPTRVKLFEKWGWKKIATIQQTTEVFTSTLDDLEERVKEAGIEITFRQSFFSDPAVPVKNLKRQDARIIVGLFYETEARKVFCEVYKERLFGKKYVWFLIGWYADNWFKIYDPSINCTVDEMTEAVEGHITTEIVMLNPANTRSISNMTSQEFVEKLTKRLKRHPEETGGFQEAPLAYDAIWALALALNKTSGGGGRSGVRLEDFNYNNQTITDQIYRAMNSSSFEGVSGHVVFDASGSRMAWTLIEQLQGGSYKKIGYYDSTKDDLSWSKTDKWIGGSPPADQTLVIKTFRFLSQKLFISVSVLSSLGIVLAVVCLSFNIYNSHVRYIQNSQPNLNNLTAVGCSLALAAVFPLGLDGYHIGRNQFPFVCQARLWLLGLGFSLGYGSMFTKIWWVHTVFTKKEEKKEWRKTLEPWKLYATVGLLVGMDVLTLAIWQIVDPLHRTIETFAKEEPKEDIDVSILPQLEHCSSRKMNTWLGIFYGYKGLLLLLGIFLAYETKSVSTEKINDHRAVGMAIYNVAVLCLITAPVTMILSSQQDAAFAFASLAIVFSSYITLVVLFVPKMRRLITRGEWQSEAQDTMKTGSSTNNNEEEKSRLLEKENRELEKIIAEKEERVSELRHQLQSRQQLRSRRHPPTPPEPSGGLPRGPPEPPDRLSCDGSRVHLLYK
Sequence of gb1a-gb^2 heterodimer and post-synaptic GABAB receptor (O75899 42-941 partner): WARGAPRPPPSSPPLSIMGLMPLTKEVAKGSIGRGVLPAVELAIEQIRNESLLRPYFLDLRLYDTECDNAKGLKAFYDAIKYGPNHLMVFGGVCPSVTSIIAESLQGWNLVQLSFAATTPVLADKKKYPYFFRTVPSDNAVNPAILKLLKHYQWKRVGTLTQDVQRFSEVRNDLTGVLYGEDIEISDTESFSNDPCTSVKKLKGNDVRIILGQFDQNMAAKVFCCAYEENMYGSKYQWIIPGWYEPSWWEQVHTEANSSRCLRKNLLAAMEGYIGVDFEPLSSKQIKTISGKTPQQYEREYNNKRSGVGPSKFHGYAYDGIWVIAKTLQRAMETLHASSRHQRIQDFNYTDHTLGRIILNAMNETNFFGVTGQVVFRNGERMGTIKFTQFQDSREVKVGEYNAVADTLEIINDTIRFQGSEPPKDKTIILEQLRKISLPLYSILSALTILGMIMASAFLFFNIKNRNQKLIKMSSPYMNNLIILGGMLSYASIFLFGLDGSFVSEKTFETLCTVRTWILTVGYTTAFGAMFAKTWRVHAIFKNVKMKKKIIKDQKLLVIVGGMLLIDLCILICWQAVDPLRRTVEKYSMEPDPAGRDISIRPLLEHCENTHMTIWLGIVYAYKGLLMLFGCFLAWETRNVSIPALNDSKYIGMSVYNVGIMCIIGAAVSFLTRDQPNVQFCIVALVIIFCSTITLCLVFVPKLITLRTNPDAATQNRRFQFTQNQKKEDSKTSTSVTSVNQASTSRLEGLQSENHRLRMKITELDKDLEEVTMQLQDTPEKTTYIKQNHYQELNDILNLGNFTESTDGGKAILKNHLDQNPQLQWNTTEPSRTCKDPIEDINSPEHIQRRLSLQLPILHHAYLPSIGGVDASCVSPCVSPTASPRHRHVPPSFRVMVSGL

`NCC1(CC(=O)O)CCCCC1` [gabapentin, 1-(aminomethyl) cyclohexaneacetic acid]: the plasma protein binding entry in data set [1] is “does not bind to plasma proteins”. The solubility entry in data set [2] is recorded as “freely soluble”. Further, for the setting “adults, post-dose”, the “time of peak plasma gabapentin concentrations” value was 2 to 3 h. The absolute bioavailability entry (after administration of 300 mg, dose-dependent) is “approximately 60%”. Moreover, under “in vivo”, the metabolism result is “not metabolized” and the route of elimination result is on record as “eliminated via glomerular filtration”. Further, the “crossing of the blood-brain barrier” value (unlike GABA) was “able to cross the blood-brain barrier”. Also, the agonist activity entry in data set [3] was “selective agonist”.
